Laboratory results taken from patent US20080009418A1, “Selective Inhibitors” (Alchemia LTD., priority 2004, published 2008).

Key:
Human δ-opioid (DOP) = target: T1, Human δ-opioid (DOP) (Homo sapiens, UniProt P41143); test: Radioligand binding, human δ-opioid (DOP) membranes, FlashPlate, [3H]-Bremazocine; details: compound at 10 μM, [3H]-Bremazocine; for A1: inhibition of radioligand binding: FlashPlate
T1 construct: purchased Perkin Elmer Biosignal
Method in brief: (§1)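 Cloned human receptor membranes were coated onto FlashPlate wells and incubated with radioligand and compound (added from a 0.5 mM DMSO daughter plate) for 1 hour at room temperature in the dark. Scintillation counting gave percent inhibition, with DMSO defining total and reference ligand defining non-specific binding.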

Human κ-Opioid (KOP) = target: T2, Human κ-Opioid (KOP) (Homo sapiens, UniProt P41145); test: Radioligand binding, human κ-opioid (KOP) membranes, filtration, [3H]-Diprenorphine; details: compound at 10 μM, [3H]-Diprenorphine; for A2: inhibition of radioligand binding: filtration
T2 construct: purchased Perkin Elmer Biosignal
Method in brief: (§2)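 Percent inhibition of radioligand binding measured on recombinant human membranes: NK1 with [125I]-Substance P, KOP with [3H]-Diprenorphine. Incubation 1 h at room temperature, then harvest onto 0.3% PEI-soaked filters, cold Tris-HCl pH 7.4 washes and scintillation counting; non-specific binding from reference ligand wells.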

Human Melanocortin (MC3) = target: T3, Human Melanocortin (MC3) (Homo sapiens, UniProt P41968); test: Radioligand binding, human melanocortin MC3 membranes, FlashPlate, [125I]-NDP-αMSH; details: compound at 10 μM, [125I]-NDP-αMSH; for A3: inhibition of radioligand binding: FlashPlate
T3 construct: purchased Perkin Elmer Biosignal
Method in brief: as §1

Human Melanocortin (MC4) = target: T4, Human Melanocortin (MC4) (Homo sapiens, UniProt P32245); test: Radioligand binding, human melanocortin MC4 membranes, FlashPlate, [125I]-NDP-αMSH; details: compound at 10 μM, [125I]-NDP-αMSH; for A4: inhibition of radioligand binding: FlashPlate
T4 construct: purchased Perkin Elmer Biosignal
Method in brief: as §1

Human melanocortin (MC5) = target: T5, Human melanocortin (MC5) (Homo sapiens, UniProt P33032); test: Radioligand binding, human melanocortin MC5 membranes, FlashPlate, [125I]-NDP-αMSH; details: compound at 10 μM, [125I]-NDP-αMSH; for A5: inhibition of radioligand binding: FlashPlate
T5 construct: purchased Perkin Elmer Biosignal
Method in brief: as §1

[1] = target: T6, Human melanin-concentrating hormone (MCH1) (Homo sapiens, UniProt Q99705); test: Radioligand binding, human melanin-concentrating hormone MCH1 membranes, FlashPlate, [125I]-S36057; details: compound at 10 μM; for A6: inhibition of radioligand binding: [125I]-S36057, FlashPlate
T6 construct: purchased Perkin Elmer Biosignal
Method in brief: as §1

Human μ-opioid (MOP) = target: T7, Human μ-opioid (MOP) (Homo sapiens, UniProt P35372); test: Radioligand binding, human μ-opioid (MOP) membranes, FlashPlate, [3H]-Naloxone; details: compound at 10 μM, [3H]-Naloxone; for A7: inhibition of radioligand binding: FlashPlate
T7 construct: purchased Perkin Elmer Biosignal
Method in brief: as §1

Human neurokinin (NK1) = target: T8, Human neurokinin (NK1) (Homo sapiens, UniProt P25103); test: Radioligand binding, human neurokinin NK1 membranes, filtration, [125I]-Substance P; details: compound at 10 μM, [125I]-Substance P; for A8: inhibition of radioligand binding: filtration
T8 construct: purchased Perkin Elmer Biosignal
Method in brief: as §2

[2] = target: T9, Human neuropeptide Y (NPY-Y1) (Homo sapiens, UniProt P25929); test: Radioligand binding, human neuropeptide Y NPY-Y1 membranes, FlashPlate, [125I]-PYY; details: compound at 10 μM, [125I]-PYY; for A9: inhibition of radioligand binding: FlashPlate
T9 construct: purchased Perkin Elmer Biosignal
T9 sequence (P25929 1-384): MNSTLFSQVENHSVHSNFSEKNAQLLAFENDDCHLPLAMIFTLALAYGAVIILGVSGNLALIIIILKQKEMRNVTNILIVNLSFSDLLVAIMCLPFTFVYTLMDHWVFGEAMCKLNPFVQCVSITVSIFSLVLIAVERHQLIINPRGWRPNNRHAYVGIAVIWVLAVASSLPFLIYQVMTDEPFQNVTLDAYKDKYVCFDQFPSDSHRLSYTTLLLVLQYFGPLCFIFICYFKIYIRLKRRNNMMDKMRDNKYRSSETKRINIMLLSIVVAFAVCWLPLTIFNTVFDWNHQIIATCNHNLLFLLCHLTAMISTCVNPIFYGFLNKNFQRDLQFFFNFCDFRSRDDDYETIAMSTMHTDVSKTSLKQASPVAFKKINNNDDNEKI
Method in brief: as §1

Human opioid (ORL1) = target: T10, Human opioid (ORL1) (Homo sapiens, UniProt P41146); test: Radioligand binding, human opioid ORL1 membranes, FlashPlate, [125I]-Nociceptin; details: compound at 10 μM, [125I]-Nociceptin; for A10: inhibition of radioligand binding: FlashPlate
T10 construct: purchased Perkin Elmer Biosignal
Method in brief: as §1

Mouse urotensin (mUR2) = target: T11, Mouse urotensin (mUR2) (Mus musculus, UniProt Q8VIH9); test: Radioligand binding, mouse urotensin mUR2 membranes, FlashPlate, [125I]-Urotensin II; details: compound at 10 μM, [125I]-Urotensin II; for A11: inhibition of radioligand binding: FlashPlate
T11 construct: purchased Perkin Elmer Biosignal
T11 sequence (Q8VIH9 1-385): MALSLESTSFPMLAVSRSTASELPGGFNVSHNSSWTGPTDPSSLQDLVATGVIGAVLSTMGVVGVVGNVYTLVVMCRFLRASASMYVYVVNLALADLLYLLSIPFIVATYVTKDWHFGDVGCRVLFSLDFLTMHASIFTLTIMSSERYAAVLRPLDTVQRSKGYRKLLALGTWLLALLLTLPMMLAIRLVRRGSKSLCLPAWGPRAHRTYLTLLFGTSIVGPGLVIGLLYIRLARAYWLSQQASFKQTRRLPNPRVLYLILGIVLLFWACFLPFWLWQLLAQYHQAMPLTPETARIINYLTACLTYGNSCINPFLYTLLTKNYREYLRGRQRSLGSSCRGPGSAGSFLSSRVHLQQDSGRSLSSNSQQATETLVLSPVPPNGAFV
Method in brief: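 Cloned mouse urotensin (mUR2) receptor membranes from Perkin Elmer Biosignal were immobilized in FlashPlate microplates using a proprietary coating. Each well got 19.5 μl buffer, then 0.5 μl of DMSO, reference ligand, or compound. Adding 5 μl of [125I]-Urotensin II, diluted to 5× final concentration in binding buffer, started binding. Plates were sealed with TopSeal-A and incubated 1 hour at room temperature in the dark. Wells were counted for 30 seconds each on a TopCount after a 60-second delay, and percentage inhibition was calculated.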

T6 sequence (Q99705 whole entry): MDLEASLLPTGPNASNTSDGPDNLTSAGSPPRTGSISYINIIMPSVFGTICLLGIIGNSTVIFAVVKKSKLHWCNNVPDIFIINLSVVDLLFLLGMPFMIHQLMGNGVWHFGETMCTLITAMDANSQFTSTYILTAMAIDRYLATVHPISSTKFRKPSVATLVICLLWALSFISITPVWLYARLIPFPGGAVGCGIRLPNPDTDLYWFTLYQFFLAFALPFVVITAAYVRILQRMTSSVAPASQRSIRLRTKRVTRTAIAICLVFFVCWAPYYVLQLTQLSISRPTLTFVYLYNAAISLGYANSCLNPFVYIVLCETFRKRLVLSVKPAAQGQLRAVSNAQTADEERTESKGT
T3 sequence (P41968 whole entry): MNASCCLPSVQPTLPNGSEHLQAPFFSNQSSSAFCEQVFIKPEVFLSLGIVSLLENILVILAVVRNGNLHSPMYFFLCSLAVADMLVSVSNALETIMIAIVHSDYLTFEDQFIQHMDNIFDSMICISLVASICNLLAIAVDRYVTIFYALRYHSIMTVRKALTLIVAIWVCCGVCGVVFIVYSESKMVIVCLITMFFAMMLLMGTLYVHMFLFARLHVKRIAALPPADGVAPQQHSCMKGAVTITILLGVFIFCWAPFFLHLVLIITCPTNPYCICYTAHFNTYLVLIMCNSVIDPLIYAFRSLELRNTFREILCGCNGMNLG
T2 sequence (P41145 whole entry): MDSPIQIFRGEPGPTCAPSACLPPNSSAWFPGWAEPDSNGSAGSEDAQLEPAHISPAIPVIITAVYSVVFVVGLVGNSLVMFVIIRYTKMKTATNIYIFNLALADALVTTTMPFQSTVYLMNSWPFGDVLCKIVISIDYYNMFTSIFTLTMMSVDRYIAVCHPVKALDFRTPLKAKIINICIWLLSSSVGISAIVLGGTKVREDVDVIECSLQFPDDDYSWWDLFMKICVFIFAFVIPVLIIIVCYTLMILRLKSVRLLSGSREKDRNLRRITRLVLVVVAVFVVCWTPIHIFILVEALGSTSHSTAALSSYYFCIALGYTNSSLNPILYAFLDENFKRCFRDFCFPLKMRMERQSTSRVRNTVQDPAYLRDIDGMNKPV
T8 sequence (P25103 whole entry): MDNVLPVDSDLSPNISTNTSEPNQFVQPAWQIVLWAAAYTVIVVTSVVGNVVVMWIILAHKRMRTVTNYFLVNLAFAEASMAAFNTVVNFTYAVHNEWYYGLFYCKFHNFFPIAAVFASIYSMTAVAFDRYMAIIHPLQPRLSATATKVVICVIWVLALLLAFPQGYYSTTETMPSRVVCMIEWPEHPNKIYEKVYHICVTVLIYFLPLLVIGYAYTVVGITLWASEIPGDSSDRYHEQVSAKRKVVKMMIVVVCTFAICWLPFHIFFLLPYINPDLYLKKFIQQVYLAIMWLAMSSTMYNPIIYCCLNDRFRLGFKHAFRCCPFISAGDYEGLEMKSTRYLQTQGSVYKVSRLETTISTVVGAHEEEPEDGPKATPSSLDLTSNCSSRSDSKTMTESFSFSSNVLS
T7 sequence (P35372 whole entry): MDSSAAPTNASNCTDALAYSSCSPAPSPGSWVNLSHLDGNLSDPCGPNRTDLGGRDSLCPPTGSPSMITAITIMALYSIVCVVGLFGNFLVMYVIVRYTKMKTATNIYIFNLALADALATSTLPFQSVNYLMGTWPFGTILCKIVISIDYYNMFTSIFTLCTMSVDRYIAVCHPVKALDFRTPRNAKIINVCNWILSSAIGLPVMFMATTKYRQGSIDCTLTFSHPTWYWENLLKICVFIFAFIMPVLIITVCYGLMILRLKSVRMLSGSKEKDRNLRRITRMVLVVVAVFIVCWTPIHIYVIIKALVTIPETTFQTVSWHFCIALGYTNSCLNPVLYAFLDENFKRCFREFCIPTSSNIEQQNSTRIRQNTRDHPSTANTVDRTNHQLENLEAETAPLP
T1 sequence (P41143 whole entry): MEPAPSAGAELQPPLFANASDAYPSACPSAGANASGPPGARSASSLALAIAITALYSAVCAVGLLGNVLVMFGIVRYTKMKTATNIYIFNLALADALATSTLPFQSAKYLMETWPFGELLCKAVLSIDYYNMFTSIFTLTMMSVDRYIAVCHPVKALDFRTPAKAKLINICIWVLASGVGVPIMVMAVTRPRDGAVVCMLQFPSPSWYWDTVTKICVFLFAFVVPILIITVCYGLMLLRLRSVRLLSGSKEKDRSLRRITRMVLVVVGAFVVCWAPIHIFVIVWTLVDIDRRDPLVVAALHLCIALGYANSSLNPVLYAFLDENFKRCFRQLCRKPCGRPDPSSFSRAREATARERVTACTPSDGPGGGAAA
T4 sequence (P32245 whole entry): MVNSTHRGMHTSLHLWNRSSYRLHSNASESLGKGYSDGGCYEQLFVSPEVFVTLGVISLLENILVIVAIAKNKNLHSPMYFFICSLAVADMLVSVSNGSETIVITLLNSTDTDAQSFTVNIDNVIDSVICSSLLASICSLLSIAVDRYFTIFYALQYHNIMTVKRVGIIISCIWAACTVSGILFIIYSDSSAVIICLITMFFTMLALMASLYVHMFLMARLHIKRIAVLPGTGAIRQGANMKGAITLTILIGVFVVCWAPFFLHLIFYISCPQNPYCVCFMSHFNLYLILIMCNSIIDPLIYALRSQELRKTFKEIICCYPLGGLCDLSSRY
T10 sequence (P41146 whole entry): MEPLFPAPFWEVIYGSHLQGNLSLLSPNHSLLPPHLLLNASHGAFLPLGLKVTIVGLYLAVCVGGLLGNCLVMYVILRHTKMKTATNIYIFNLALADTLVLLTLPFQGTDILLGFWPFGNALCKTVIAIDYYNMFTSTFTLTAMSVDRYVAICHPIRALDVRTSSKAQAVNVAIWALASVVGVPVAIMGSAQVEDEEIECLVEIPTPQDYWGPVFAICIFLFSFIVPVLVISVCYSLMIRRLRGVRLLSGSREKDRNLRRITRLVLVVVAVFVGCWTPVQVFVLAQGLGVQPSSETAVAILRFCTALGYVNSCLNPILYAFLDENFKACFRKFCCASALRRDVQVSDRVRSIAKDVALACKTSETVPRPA
T5 sequence (P33032 whole entry): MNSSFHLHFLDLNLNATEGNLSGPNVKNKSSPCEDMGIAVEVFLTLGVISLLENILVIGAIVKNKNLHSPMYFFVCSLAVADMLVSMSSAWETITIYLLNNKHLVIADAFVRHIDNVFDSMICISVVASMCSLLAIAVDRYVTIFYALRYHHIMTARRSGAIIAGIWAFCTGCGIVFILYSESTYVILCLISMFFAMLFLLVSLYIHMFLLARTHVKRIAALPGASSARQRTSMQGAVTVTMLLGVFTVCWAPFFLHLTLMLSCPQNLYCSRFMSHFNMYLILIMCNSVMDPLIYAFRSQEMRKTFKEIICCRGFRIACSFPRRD

SMILES | A1 radioligand binding, percentage inhibition (Human δ-opioid (DOP)) | A2 radioligand binding, percentage inhibition (Human κ-Opioid (KOP)) | A3 radioligand binding, percentage inhibition (Human Melanocortin (MC3)) | A4 radioligand binding, percentage inhibition (Human Melanocortin (MC4)) | A5 radioligand binding, percentage inhibition (Human melanocortin (MC5)) | A6 radioligand binding, percentage inhibition ([1]; [125I]-S36057) | A7 radioligand binding, percentage inhibition (Human μ-opioid (MOP)) | A8 radioligand binding, percentage inhibition (Human neurokinin (NK1)) | A9 radioligand binding, percentage inhibition [2] | A10 radioligand binding, percentage inhibition (Human opioid (ORL1)) | A11 radioligand binding, percentage inhibition (Mouse urotensin (mUR2)) | A1: inhibition of radioligand binding (Human δ-opioid (DOP)) | A2: inhibition of radioligand binding (Human κ-Opioid (KOP)) | A3: inhibition of radioligand binding (Human Melanocortin (MC3)) | A4: inhibition of radioligand binding (Human Melanocortin (MC4)) | A5: inhibition of radioligand binding (Human melanocortin (MC5)) | A6: inhibition of radioligand binding [1] | A7: inhibition of radioligand binding (Human μ-opioid (MOP)) | A8: inhibition of radioligand binding (Human neurokinin (NK1)) | A9: inhibition of radioligand binding [2] | further results
CO[C@H]1[C@H](O)[C@@H](COCc2cccc(O)c2)OC(OCc2ccc(-c3ccccc3)cc2)[C@@H]1NC(=O)CNC(=N)N (stereo partly shown) [compound 146] | − (“−” indicates less than 50% inhibition at 10 μM) | + (“+” indicates greater than 50% inhibition at 10 μM) | − (“−” indicates less than 50% inhibition at 10 μM) | − (“−” indicates less than 50% inhibition at 10 μM) | + (“+” indicates greater than 50% inhibition at 10 μM) | − (“−” indicates less than 50% inhibition at 10 μM) | − (“−” indicates less than 50% inhibition at 10 μM) | + (“+” indicates greater than 50% inhibition at 10 μM) | − (“−” indicates less than 50% inhibition at 10 μM) | − (“−” indicates less than 50% inhibition at 10 μM) | − (“−” indicates less than 50% inhibition at 10 μM) | – | – | – | – | – | – | – | – | – | –
COCC1OC(OCc2ccc(Cl)cc2)C(NC(=O)CCN)C(OCc2ccc3ccccc3c2)C1O (stereo not shown) [compound 210] | – | – | – | – | – | – | – | – | – | – | – | − (“−” indicates less than 50% inhibition at 10 μM) | − (“−” indicates less than 50% inhibition at 10 μM) | − (“−” indicates less than 50% inhibition at 10 μM) | + (“+” indicates greater than 50% inhibition at 10 μM) | + (“+” indicates greater than 50% inhibition at 10 μM) | − (“−” indicates less than 50% inhibition at 10 μM) | − (“−” indicates less than 50% inhibition at 10 μM) | + (“+” indicates greater than 50% inhibition at 10 μM) | − (“−” indicates less than 50% inhibition at 10 μM) | A10: inhibition of radioligand binding (Human opioid (ORL1)): − (“−” indicates less than 50% inhibition at 10 μM); A11: inhibition of radioligand binding (Mouse urotensin (mUR2)): − (“−” indicates less than 50% inhibition at 10 μM)
NCCCC(=O)NC1C(OCc2ccc(Cl)cc2)OC(COCc2ccc3ccccc3c2)C(O)C1OCc1ccc(Cl)cc1 (single isomer, unassigned) [compound 490] | – | – | – | – | – | – | – | – | – | – | – | – | – | – | – | – | – | – | – | – | A1: inhibition of radioligand binding, human δ-opioid (DOP) (Human δ-opioid (DOP)): − (“−” indicates less than 50% inhibition at 10 μM); A2: inhibition of radioligand binding, human κ-opioid (KOP) (Human κ-Opioid (KOP)): − (“−” indicates less than 50% inhibition at 10 μM); A3: inhibition of radioligand binding, human melanocortin (MC3) (Human Melanocortin (MC3)): + (“+” indicates greater than 50% inhibition at 10 μM); A4: inhibition of radioligand binding, human melanocortin (MC4) (Human Melanocortin (MC4)): + (“+” indicates greater than 50% inhibition at 10 μM); A5: inhibition of radioligand binding, human melanocortin (MC5) (Human melanocortin (MC5)): + (“+” indicates greater than 50% inhibition at 10 μM); A6: inhibition of radioligand binding, human melanin-concentrating hormone (MCH1) ([1]; [125I]-S36057, 10 µM): + (“+” indicates greater than 50% inhibition at 10 μM); A7: inhibition of radioligand binding, human μ-opioid (MOP) (Human μ-opioid (MOP)): + (“+” indicates greater than 50% inhibition at 10 μM); A8: inhibition of radioligand binding, human neurokinin (NK1) (Human neurokinin (NK1)): + (“+” indicates greater than 50% inhibition at 10 μM); A9: inhibition of radioligand binding, human neuropeptide Y (NPY-Y1) [2]: − (“−” indicates less than 50% inhibition at 10 μM); A10: inhibition of radioligand binding, human opioid (ORL1) (Human opioid (ORL1)): + (“+” indicates greater than 50% inhibition at 10 μM); A11: inhibition of radioligand binding, mouse urotensin (mUR2) (Mouse urotensin (mUR2)): − (“−” indicates less than 50% inhibition at 10 μM)
COCC1OC(OCCc2ccccc2)C(NC(=O)CN)C(OCc2ccc(-c3ccccc3)cc2)C1O (stereo not shown) [compound 224] | – | – | – | – | – | – | – | – | – | – | – | − (“−” indicates less than 50% inhibition at 10 μM) | − (“−” indicates less than 50% inhibition at 10 μM) | − (“−” indicates less than 50% inhibition at 10 μM) | − (“−” indicates less than 50% inhibition at 10 μM) | − (“−” indicates less than 50% inhibition at 10 μM) | − (“−” indicates less than 50% inhibition at 10 μM) | − (“−” indicates less than 50% inhibition at 10 μM) | + (“+” indicates greater than 50% inhibition at 10 μM) | − (“−” indicates less than 50% inhibition at 10 μM) | A10: inhibition of radioligand binding (Human opioid (ORL1)): − (“−” indicates less than 50% inhibition at 10 μM); A11: inhibition of radioligand binding (Mouse urotensin (mUR2)): − (“−” indicates less than 50% inhibition at 10 μM)
COC1O[C@H](COCC(=O)O)[C@@H](O)[C@H](OCc2ccccc2)[C@H]1NC(=O)c1cnc[nH]1 (stereo partly shown) [compound 128] | − (“−” indicates less than 50% inhibition at 10 μM) | − (“−” indicates less than 50% inhibition at 10 μM) | − (“−” indicates less than 50% inhibition at 10 μM) | − (“−” indicates less than 50% inhibition at 10 μM) | − (“−” indicates less than 50% inhibition at 10 μM) | − (“−” indicates less than 50% inhibition at 10 μM) | − (“−” indicates less than 50% inhibition at 10 μM) | + (“+” indicates greater than 50% inhibition at 10 μM) | − (“−” indicates less than 50% inhibition at 10 μM) | − (“−” indicates less than 50% inhibition at 10 μM) | − (“−” indicates less than 50% inhibition at 10 μM) | – | – | – | – | – | – | – | – | – | –
